Source: PMC10650850, “Discovery, Structure–Activity Relationship and In Vitro Anticancer Activity of Small-Molecule Inhibitors of the Protein–Protein Interactions between AF9/ENL and AF4 or DOT1L” (Cancers, 2023)
Structures can show the parent of a compound that is named as a salt. Blank lines part the entries; values can stand above or below the molecule they belong to. No end group written: not given here. *: point of attachment. Biotin = O=C1N[C@H]2[C@H](CS[C@H]2CCCCC(=O)*)N1; Ahx = NCCCCCC(=O)O

Key:
AF9-DOT1L interaction = molecular target: T1, AF9-DOT1L interaction (Homo sapiens, UniProt P42568); assay: AlphaLisa assay, AF9-DOT1L interaction; format: binding
T1 construct: human AF9 AHD domain (475–568); made in house; host or cells: E. coli BL21(DE3)
T1 sequence (P42568 475-568): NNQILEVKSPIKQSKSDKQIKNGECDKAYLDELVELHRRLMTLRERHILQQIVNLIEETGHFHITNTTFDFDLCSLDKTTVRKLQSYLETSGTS
In short: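 AlphaLisa proximity assay using MBP-tagged human AF9 AHD (475–568, 5 nM) on anti-MBP acceptor beads and biotinylated DOT1L peptide (40 nM) on streptavidin donor beads, in PBS with 0.5% BSA, pH 7.5. Compound titrated; IC50 from dose-response fits of 3 independent experiments.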

[1] = molecular target: AF9/ENL-DOT1L interaction; set-up: method as in PMID 30258537, PMID 35612819; settings: printed in Chart 1; ref [33],[34]; cited from earlier work
[2] = molecular target: T2, MBP-tagged AF9 AHD domain (475–568) (human, UniProt P42568 475-568); assay: AlphaScreen or HTRF; AlphaLisa (Perkin-Elmer anti-MBP kit): MBP-protein (5 nM) on anti-MBP acceptor beads, biotinylated peptide (40 nM) on streptavidin donor beads, increasing concentrations of a small-molecule compound, 25 µL PBS with 0.5% BSA, pH 7.5, 384-well plates; settings: both partners purified
T2 construct: AF9 (MLLT3), human, C-terminal AHD domain, residues 475-568; cDNA synthesized by Genscript and inserted into pMAL c5X; Expressed from pMAL c5X; the MBP tag is used for capture on anti-MBP acceptor beads and for detection by an MBP antibody; also called MBP-protein; source: E. coli BL21(DE3), purified (amylose resin, size exclusion Superdex 200); not shown: MBP, N-terminal, kept
T2 sequence (looked up): T1 sequence (P42568 475-568)

[3] = molecular target: T3, MBP-tagged ENL AHD domain (489–559) (human, UniProt Q03111 489-559); assay: as above; settings: both partners purified
T3 construct: ENL (MLLT1), human, C-terminal AHD domain, residues 489-559; cDNA synthesized by Genscript and inserted into pMAL c5X; Expressed from pMAL c5X; the MBP tag is used for capture on anti-MBP acceptor beads; also called MBP-protein; source: E. coli BL21(DE3), purified (amylose resin, size exclusion Superdex 200); not shown: MBP, N-terminal, kept
T3 sequence (looked up): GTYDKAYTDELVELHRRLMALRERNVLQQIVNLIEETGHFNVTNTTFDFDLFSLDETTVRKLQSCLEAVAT

Molecule: N#Cc1cccc(-c2ccc3cc(C(=O)NCC4CCNCC4)[nH]c3c2)c1 [Compound 10, 6-(3-Cyanophenyl)-N-(piperidin-4-ylmethyl)-1H-indole-2-carboxamide hydrochloride]
IC50 (AF9-DOT1L interaction; MBP-protein 5 nM, biotinylated peptide 40 nM, 3 independent experiments with standard deviation, read-out: IC50 (μM) against the AF9-DOT1L interaction): 2.1 µM
inhibition at 5 µM (AF9-DOT1L interaction; compound at 5 μM, read-out: % Inhibition at 5 μM against the AF9-DOT1L interaction): 0%
Ki [1]: 0.009 µM

binding result [2]: binds
B1: DOT1L peptide (Biotin-AHX-NKLPVSIPLASVVLPSRAERARST) (peptide)
peptide: {Biotin-Ahx}-NKLPVSIPLASVVLPSRAERARST
notes: stretch of histone H3K79 methyltransferase DOT1L with an LxVxIxLxxV/L motif; also called biotinylated DOT1L peptide; source: synthetic peptide, bought: Genscript

binding result [3]: binds
binding result [2]: binds
B2: AF4 peptide (Biotin-AHX-QSLMVKITLDLLSRIPQPPGK) (peptide)
peptide: {Biotin-Ahx}-QSLMVKITLDLLSRIPQPPGK
notes: stretch of transcription cofactor AF4 (AFF1) with an LxVxIxLxxV/L motif; also called biotinylated AF4 peptide; source: synthetic peptide, bought: Genscript
